Reference: patent US8742156B2 (priority 2010, dated 2014)
Counter-ions that a name gives are not always drawn. Like-named read-outs stand apart in the source and are kept apart here.

Experiments:
H9N2 (A/Quail/HK/G1/97) = assay type: cell-based, influenza H9N2 virus; conditions: for TCID50/ml H9N2 virus: m.o.i of 2, supernatant 48-hour post-infection
[1] = tested on: H1N1 virus (A/HK/54/98 (Tamiflu-sensitive strain)); assay: Viral infection of MDCK cells, TCID50 viral titer, H1N1 (Tamiflu-sensitive); assay type: cell-based, Human influenza H1N1 virus; conditions: for TCID50/ml H1N1 virus: m.o.i of 2, supernatant 48-hour post-infection; for viral titers of Tamiflu-sensitive (Tami-S) H1N1 virus decreased (fold): FIG. 1, multiplicity of infection of 0.2, 48-hour post-infection
MDCK cells = assay: Cell Viability Test (MTT); assay type: cell-based, canine; conditions: 50 uM, 72 hours
Protocol: This compound was obtained from the National Cancer Institute, USA. Cell Viability Test: MDCK cells were seeded at 2×10^6/ml in a 96-well plate for 16-24 hours. Compound 58 (50 uM) was added to the cells. DMSO was added to the cells as a control. Cells were incubated at 37° C. and 5% CO2 for 72 hours, and then Thiazolyl Blue Tetrazolium Bromide (MTT) was added to a final concentration of 0.1 mg/ml. After two hours, the culture supernatant was removed and each well was replenished with isopropanol. The MTT metabolic product, formazan, was dissolved in isopropanol for five minutes with shaking. The optical densities of formazan and background were measured at 560 nm and 670 nm, respectively.

H3N2 (A/H3N2/1174/99) = assay: Viral infection of MDCK cells, TCID50 viral titer, H3N2; assay type: cell-based, influenza H3N2 virus; conditions: for TCID50/ml H3N2 virus: m.o.i of 2, supernatant 48-hour post-infection

| SMILES | TCID50/ml H9N2 virus (H9N2 (A/Quail/HK/G1/97); 10 μM) | TCID50/ml H9N2 virus (H9N2 (A/Quail/HK/G1/97); 20 μM) | TCID50/ml H9N2 virus (H9N2 (A/Quail/HK/G1/97); 50 μM) | inhibition of replication of H9N2 virus (H9N2 (A/Quail/HK/G1/97); TCID50 results, Table 1A) | TCID50/ml H1N1 virus ([1]; 10 μM) | TCID50/ml H1N1 virus ([1]; 20 μM) | TCID50/ml H1N1 virus ([1]; 50 μM) | inhibitory effects against Tami-S H1N1 virus ([1]; FIG. 1, multiplicity of infection of 0.2) | viral titers of Tamiflu-sensitive (Tami-S) H1N1 virus decreased (fold) [1] [fold] | inhibition of replication of H1N1 virus ([1]; TCID50 results, Table 1A) | cytotoxicity in MDCK cells compared with DMSO (MDCK cells) | Cytotoxicity index (MDCK cells; MDCK cells, MTT, relative to DMSO (1.0)) | TCID50/ml H3N2 virus (H3N2 (A/H3N2/1174/99); 10 μM) | TCID50/ml H3N2 virus (H3N2 (A/H3N2/1174/99); 20 μM) | TCID50/ml H3N2 virus (H3N2 (A/H3N2/1174/99); 50 μM) | inhibition of replication of H3N2 virus (H3N2 (A/H3N2/1174/99); TCID50 results, Table 1A) | TCID50/ml H1N1 virus ([1]; 100 μM) | virus level suppressed (fold) ([1]; H1N1 tamiflu-sensitive, Table 1B (100 μM)) |
| --- | --- | --- | --- | --- | --- | --- | --- | --- | --- | --- | --- | --- | --- | --- | --- | --- | --- | --- |
| N=C(Nc1ccccc1)SCCCSC(=N)Nc1ccccc1 [Compound 58, Carbamimidothioic acid, phenyl-, 1,3-propanediyl ester, dihydrobromide] | 1.14 × 10^3 TCID50/ml | 4.16 × 10^2 TCID50/ml | 1.90 × 10^2 TCID50/ml | inhibits the replication | 2.90 × 10^4 TCID50/ml | 1.82 × 10^4 TCID50/ml | 4.53 × 10^2 TCID50/ml | potent inhibitory effects | 5 | inhibits the replication | does not display cytotoxicity | 0.916 | 4.61 × 10^4 TCID50/ml | 1.72 × 10^4 TCID50/ml | 7.24 × 10^3 TCID50/ml | inhibits the replication | – | – |
| O=C(Nc1ccc(Nc2ccncc2)cc1)c1ccc(Nc2ccnc3ccccc23)cc1[N+](=O)[O-] [Compound 73, 2-nitro-N-[4-(pyridin-4-ylamino)phenyl]-4-(quinolin-4-ylamino)benzamide] | – | – | – | – | – | – | – | – | – | – | – | – | – | – | – | – | 2.28 × 10^3 TCID50/ml | around 10 fold |
| CCOC(=O)C1=C[C@@H](OC(CC)CC)[C@H](NC(C)=O)[C@@H](N)C1 [Tamiflu, oseltamivir, reference compound] | – | – | 9.00 × 10^1 TCID50/ml | – | – | – | 1.45 × 10^4 TCID50/ml | – | 8 | – | – | – | – | – | 7.24 × 10^3 TCID50/ml | – | 1.52 × 10^3 TCID50/ml | – |
